One assay deals with T1, S. cerevisiae H^+-ATPase (Saccharomyces cerevisiae, UniProt P05030).
T1 construct: transformed with the full-length cDNA of the S. cerevisiae plasma membrane H^+-ATPase isoform PMA1; made in house; host or cells: S. cerevisiae RS72
The experiment in a line: NADH-coupled ATPase assay, initial rate of ATP hydrolysis. The settings on record: pH 7, n = 3. It counts as biochemical. The procedure:
To investigate whether the ATPase inhibition observed was due to compound binding at the ATP binding site, three compounds (5, 7, and 10) were selected for further evaluation in an ATPase activity assay on S. cerevisiae H^+-ATPase-containing membranes in presence of increasing ATP concentrations. The initial rate of ATP turnover was measured spectrophotometrically by an NADH-coupled ATPase activity assay that uses phosphoenolpyruvate to regenerate ATP, as described in Møller et al., 1980.[18]
Fig. 5 Kinetics of H^+-ATPase inhibition by carbazole compounds. The initial rate of ATP hydrolysis catalyzed by S. cerevisiae H^+-ATPase was determined by an NADH-coupled ATPase assay, as described in the Supporting Information. The reaction was initiated by the addition of H^+-ATPase-containing membranes (arrows with “H^+-ATPase”) to a pH 7 buffer containing 5 mM ATP. At the indicated times the respective compounds were added to give the final compound concentrations shown in the figure and a final DMSO concentration of 1.1%.
Fig. 6 Compound dependence of the initial rate of H^+-ATPase activity at 1 mM (triangles) or 10 mM (circles) ATP. The initial rates following compound addition deduced from experiments similar to those shown in Fig. 5 were normalized to the maximal rate obtained at 10 mM ATP in the absence of compound (presence of 1.1% DMSO) and plotted as a function of the compound concentration.
The initial rate of ATP turnover at RT was measured spectrophotometrically at 340 nm by an NADH-coupled ATPase assay that uses phosphoenolpyruvate to regenerate ATP, as described in Møller et al., 1980^4. The reaction buffer contained 17.5 mM MOPS-NaOH pH 7, 44 mM KNO3, 22 mM NaN3, 0.22 mM Na2MoO4, 1 mM phosphoenolpyruvate, 0.27 mM NADH, 83 µg/ml pyruvate kinase, 22 µg/ml L-lactate dehydrogenase, either 1, 5 or 10 mM ATP, and MgSO4 to give a Mg^2+ concentration of 2 mM in excess over the ATP concentration. The ATPase reaction was initiated by the addition of 0.2-0.3 mg/ml of S. cerevisiae Pma1-containing membranes followed by addition of compound (resulting in a final DMSO concentration of 1.1%).

The subject of another assay is C. albicans. Description: Extracellular acidification assay. It counts as cell-based. Conditions: Candida albicans, mean ± SEM n = 3. The text has this:
(§1) It was subsequently evaluated whether or not the carbazoles were able to prevent extracellular acidification of the surrounding media by blocking the pumping activity of the H^+-ATPase within fungal cells.[15] […] The H^+-ATPase requires ATP to transport protons out of fungal cells. Consequently, a decrease in intracellular ATP (iATP) levels will indirectly affect H^+-ATPase activity. […] In all cases, iATP levels were […] in C. albicans cells exposed to carbazoles compared to the untreated control. […] This implies that the carbazoles need to pass the fungal membrane to inhibit the H^+-ATPase and 7, 18 and 19 may have reduced membrane permeability.
(§2) The ability of S. cerevisiae and C. albicans to acidify the media upon glucose addition was evaluated using the pH sensor dextran (40,000MW)-fluorescein-isothiocyanate as described in Kjellerup et al., 2017^6. Briefly, the cells was starved overnight in 50 mM KCl, pH 6.7 at 4 °C. The cell suspension (Final OD600 of 0.19) was mixed with 1.3 µg/ml dextran (40,000MW)-fluorescein-isothiocyanate, 1.5 % DMSO containing inhibitors and the assay initiated with the addition of 2 % D-(+)-glucose. The rate of media acidification was calculated based on the slope of the fluorescent drop in the first 12 minutes after glucose addition.

Another assay has as its system S. cerevisiae. Description: Extracellular acidification assay. It counts as cell-based. Conditions: Saccharomyces cerevisiae, mean ± SEM n = 3.
From the text: as §1, §2

Another assay deals with Pseudomonas aeruginosa. Also noted: method as in PMID 25453797, PMID 27167126. Conditions: cited from earlier work.
The test system of a further assay is C. albicans (SC5314). Description: Time-kill assay. It counts as cell-based. As to the method: (§3) Time-kill studies were carried out to investigate whether the antifungal activity observed for 10 was fungistatic or fungicidal. Given the essential nature of fungal H^+-ATPase, it is anticipated that compounds targeting H^+-ATPase activity will promote fungicidal effects.[21]
(§4) Fig. 7 Time-kill data for C. albicans and C. glabrata cells (1 × 10^5 CFU/ml) incubated with DMSO (final concentration 1%), 1 µM AMB, and 5 or 10 µM of compound 10.
(§5) C. albicans (SC5314) and C. glabrata (ATCC 90030) cells (1 x 10^5 CFU/ml) were incubated in 10 mL RPMI media at 30 °C with gentle agitation (150 rpm) in the presence of amphotericin B (1 µM) or compound 10 at a concentration of 5 or 10 µM. At the indicated time points (0, 1, 3, 5 and 24 h at 30 °C incubation, 150 rpm), 100-μL aliquots were removed, serially diluted (10-fold) in saline (0.9% NaCl), and plated on YPD agar plates. The resulting CFUs were enumerated after incubation at 30 °C for 48 h. Cells treated with DMSO (1%, v/v) served as a control.

A further assay relates to C. glabrata (ATCC 90030). Description: Time-kill assay. It counts as cell-based. The procedure: as §3, §4, §5

A word on the IC50: it is the concentration that gives 50% inhibition. A lower IC50 goes with inhibition by little substance.

T1 sequence (P05030 whole entry, canonical isoform): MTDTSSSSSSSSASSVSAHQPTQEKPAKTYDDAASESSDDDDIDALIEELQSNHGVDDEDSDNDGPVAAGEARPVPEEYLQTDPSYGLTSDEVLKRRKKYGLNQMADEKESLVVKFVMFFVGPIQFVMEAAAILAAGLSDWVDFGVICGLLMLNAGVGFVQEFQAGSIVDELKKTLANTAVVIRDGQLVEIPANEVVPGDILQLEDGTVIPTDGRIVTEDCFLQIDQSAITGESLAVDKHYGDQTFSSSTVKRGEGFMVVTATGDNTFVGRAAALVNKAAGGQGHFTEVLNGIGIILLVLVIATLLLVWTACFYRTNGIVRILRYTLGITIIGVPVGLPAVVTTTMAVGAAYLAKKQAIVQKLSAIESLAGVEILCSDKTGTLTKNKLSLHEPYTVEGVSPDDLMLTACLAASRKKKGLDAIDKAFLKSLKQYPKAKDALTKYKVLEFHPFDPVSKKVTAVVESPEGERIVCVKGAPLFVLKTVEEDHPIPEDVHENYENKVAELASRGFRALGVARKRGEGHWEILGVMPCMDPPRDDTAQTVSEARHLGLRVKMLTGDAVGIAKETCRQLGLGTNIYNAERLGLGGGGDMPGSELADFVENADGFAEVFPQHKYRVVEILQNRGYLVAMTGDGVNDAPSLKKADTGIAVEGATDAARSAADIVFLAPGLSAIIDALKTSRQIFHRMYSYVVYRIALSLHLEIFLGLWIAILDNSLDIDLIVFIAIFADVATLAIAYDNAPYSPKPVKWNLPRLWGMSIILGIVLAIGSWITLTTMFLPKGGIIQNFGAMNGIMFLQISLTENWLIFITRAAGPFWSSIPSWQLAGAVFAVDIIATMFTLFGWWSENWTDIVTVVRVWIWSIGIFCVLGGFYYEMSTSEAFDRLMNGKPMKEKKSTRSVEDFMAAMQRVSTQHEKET

With `OC(CN1CCOCC1)Cn1c2ccc(Cl)cc2c2cc(Cl)ccc21` (stereo not drawn) [Compound 7, 1-(3,6-dichloro-9H-carbazol-9-yl)-3-morpholinopropan-2-ol], the IC50 against S. cerevisiae H^+-ATPase (1 mM ATP) turned out to be 29.7 ± 6.7 µM; against S. cerevisiae H^+-ATPase (10 mM ATP), 16.8 ± 1.7 µM; with C. albicans, 22.2 ± 12.9 µM; with S. cerevisiae it was 33.3 ± 0.6 µM.

As for `CN1CCN(CC(O)Cn2c3ccc(Cl)cc3c3cc(Cl)ccc32)CC1` (stereo not drawn) [Compound 8, 1-(3,6-dichloro-9H-carbazol-9-yl)-3-(4-methylpiperazin-1-yl)propan-2-ol], the IC50 in the assay with C. albicans came out at 9.7 ± 6.8 µM; with S. cerevisiae it was 11.1 ± 2.1 µM.

Turning to `CCC(C)NCC(O)Cn1c2ccc(Cl)cc2c2cc(Cl)ccc21` (stereo not drawn) [Compound 10, 1-(sec-butylamino)-3-(3,6-dichloro-9H-carbazol-9-yl)propan-2-ol], the “activity in bacteria reported previously” value in the assay on Pseudomonas aeruginosa is reported as “membrane damaging activity”. Moreover, the IC50 against S. cerevisiae H^+-ATPase (1 mM ATP) was determined as 4.5 ± 0.5 µM; against S. cerevisiae H^+-ATPase (10 mM ATP), 6.3 ± 1.2 µM; in the assay on C. albicans, 2.4 ± 1.2 µM; in the assay on S. cerevisiae it was 2.1 ± 1 µM. For the same compound, the results for the “exposure time after which fungicidal activity was evident” value in the assay with C. albicans (SC5314) (10 µM) and in the assay with C. glabrata (ATCC 90030) (C. glabrata) were 1 h and 3 h, respectively. In addition, the “time-kill outcome (fungistatic or fungicidal)” value with C. albicans (SC5314) (5 or 10 µM, versus 1 µM AMB) is recorded as “cell death comparable to that observed for amphotericin B”; with C. glabrata (ATCC 90030) (wild-type C. glabrata, 5 or 10 µM, versus 1 µM AMB), “cell death comparable to that observed for amphotericin B”.

As for `CN1CCN(CCCn2c3ccc(Cl)cc3c3cc(Cl)ccc32)CC1` [Compound 16, 3,6-dichloro-9-(3-(4-methylpiperazin-1-yl)propyl)-9H-carbazole], the IC50 with C. albicans is 9.5 ± 2.5 µM; in the assay on S. cerevisiae, 7.3 ± 0.4 µM.

For `OC(Cn1ccnc1)Cn1c2ccc(Cl)cc2c2cc(Cl)ccc21` (stereo not drawn) [Compound 5, 1-(3,6-dichloro-9H-carbazol-9-yl)-3-(1H-imidazol-1-yl)propan-2-ol], the IC50 on S. cerevisiae H^+-ATPase (1 mM ATP) was found to be 78 ± 14.9 µM; on S. cerevisiae H^+-ATPase (10 mM ATP), 60 ± 14.2 µM.

Turning to `CN(C)CCCCn1c2ccc(Cl)cc2c2cc(Cl)ccc21` [Compound 15], the results for the IC50 with C. albicans and in the assay on S. cerevisiae were 13.1 ± 7.2 µM and 16.2 ± 2.6 µM, respectively.
